Assays:
ShPatB [1] = molecular target: T1, ShPatB (Staphylococcus hominis, UniProt Z9H0M2I6C5); experiment: end point DTNB assay, A412; format: biochemical; conditions: 2.5 μM enzyme, 2.5 mM Cys-3M3SH; covalent to PLP, reversed by excess PLP
T1 construct: full length; pBADcLIC, expressed in E. coli MC1061; homodimer, PLP on Lys246
T1 sequence (Z9H0M2I6C5 7-404): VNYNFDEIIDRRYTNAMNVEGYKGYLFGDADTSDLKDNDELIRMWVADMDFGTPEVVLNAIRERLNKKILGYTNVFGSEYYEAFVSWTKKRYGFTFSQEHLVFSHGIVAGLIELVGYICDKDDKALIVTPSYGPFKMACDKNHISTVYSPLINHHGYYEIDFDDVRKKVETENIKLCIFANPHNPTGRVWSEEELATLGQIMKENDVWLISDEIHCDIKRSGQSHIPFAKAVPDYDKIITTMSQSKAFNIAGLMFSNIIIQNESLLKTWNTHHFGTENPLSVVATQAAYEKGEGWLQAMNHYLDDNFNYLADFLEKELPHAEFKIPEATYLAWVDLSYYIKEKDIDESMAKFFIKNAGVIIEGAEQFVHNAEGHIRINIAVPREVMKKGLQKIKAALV

ShPatB [2] = molecular target: T1, ShPatB; experiment: X-ray crystallography, […] Å; format: binding; conditions: covalent internal aldimine at Lys246
BsPatB [3] = molecular target: T2, BsPatB (Bacillus subtilis, UniProt Q08432); experiment: X-ray crystallography, […] Å; format: binding; conditions: covalent internal aldimine at Lys234
T2 construct: gene patB; full length; N-terminal MGGGFA and C-terminal ENLYFQG-His10; expressed in E. coli MC1061; homodimer, PLP on Lys234

ShPatB [4] = molecular target: T1, ShPatB; experiment: DTNB thiol release, A412, Michaelis-Menten; format: biochemical; conditions: pH 7.8, 50 mM KPi, 200 mM NaCl, 37 °C, 0.4 mM DTNB
SeMetC = molecular target: T3, SeMetC (Staphylococcus epidermidis, UniProt Q5HRU7); experiment: DTNB thiol release, A412, Michaelis-Menten; format: biochemical; conditions: pH 7.8, 50 mM KPi, 200 mM NaCl, 37 °C, 0.4 mM DTNB
T3 construct: gene SERP0095; full length; expressed in E. coli MC1061; species of 'Se' not spelt out
T3 sequence (Q5HRU7 1-381): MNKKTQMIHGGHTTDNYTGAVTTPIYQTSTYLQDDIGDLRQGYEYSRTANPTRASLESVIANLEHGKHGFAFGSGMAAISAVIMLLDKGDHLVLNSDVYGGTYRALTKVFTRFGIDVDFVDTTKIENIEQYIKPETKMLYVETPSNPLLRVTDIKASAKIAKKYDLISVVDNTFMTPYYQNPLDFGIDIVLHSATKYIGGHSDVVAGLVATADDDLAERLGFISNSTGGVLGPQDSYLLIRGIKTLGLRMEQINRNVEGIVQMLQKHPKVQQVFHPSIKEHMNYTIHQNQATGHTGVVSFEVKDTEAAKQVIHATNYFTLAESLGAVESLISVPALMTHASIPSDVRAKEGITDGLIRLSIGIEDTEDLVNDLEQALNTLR

SaPatB = molecular target: T4, SaPatB (Streptococcus anginosus, UniProt A6BMJ3); experiment: DTNB thiol release, A412, Michaelis-Menten; format: biochemical; conditions: pH 7.8, 50 mM KPi, 200 mM NaCl, 37 °C, 0.4 mM DTNB
T4 construct: gene lcd; full length; expressed in E. coli MC1061
T4 sequence (A6BMJ3 1-388): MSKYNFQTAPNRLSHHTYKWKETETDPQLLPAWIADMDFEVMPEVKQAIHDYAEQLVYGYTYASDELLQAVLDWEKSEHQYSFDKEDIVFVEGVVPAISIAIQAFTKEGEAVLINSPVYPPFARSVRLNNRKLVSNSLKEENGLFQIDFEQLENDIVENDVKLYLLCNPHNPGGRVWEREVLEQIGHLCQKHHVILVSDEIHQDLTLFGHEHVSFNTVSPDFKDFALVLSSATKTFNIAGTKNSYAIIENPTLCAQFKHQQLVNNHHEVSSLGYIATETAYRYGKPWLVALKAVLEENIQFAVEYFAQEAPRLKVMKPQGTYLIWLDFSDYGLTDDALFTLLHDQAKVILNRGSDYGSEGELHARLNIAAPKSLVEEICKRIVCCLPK

BsPatB [5] = molecular target: T2, BsPatB; experiment: DTNB thiol release, A412, Michaelis-Menten; format: biochemical; conditions: pH 7.8, 50 mM KPi, 200 mM NaCl, 37 °C, 0.4 mM DTNB
CjAecD = molecular target: T5, CjAecD (Corynebacterium jeikeium, UniProt Q4JWQ6); experiment: DTNB thiol release, A412, Michaelis-Menten; format: biochemical; conditions: pH 7.8, 50 mM KPi, 200 mM NaCl, 37 °C, 0.4 mM DTNB
T5 construct: gene aecD; full length; expressed in E. coli MC1061
T5 sequence (Q4JWQ6 1-416): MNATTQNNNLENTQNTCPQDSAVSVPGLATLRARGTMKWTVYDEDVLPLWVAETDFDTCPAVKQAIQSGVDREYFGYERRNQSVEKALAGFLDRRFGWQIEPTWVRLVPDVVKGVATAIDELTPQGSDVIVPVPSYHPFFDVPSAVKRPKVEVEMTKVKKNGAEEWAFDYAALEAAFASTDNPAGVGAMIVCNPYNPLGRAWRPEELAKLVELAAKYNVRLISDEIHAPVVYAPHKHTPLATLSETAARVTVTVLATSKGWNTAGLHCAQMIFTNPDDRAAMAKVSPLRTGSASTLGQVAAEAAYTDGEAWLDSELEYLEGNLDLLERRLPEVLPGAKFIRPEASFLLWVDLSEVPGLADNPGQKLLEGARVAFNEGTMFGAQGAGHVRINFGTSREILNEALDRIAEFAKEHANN

EcMalY = molecular target: T6, EcMalY (Escherichia coli, UniProt P23256); experiment: DTNB thiol release, A412, Michaelis-Menten; format: biochemical; conditions: pH 7.8, 50 mM KPi, 200 mM NaCl, 37 °C, 0.4 mM DTNB
T6 construct: gene malY; full length; N-terminal MGGGFA and C-terminal ENLYFQG-His10; expressed in E. coli MC1061

ShMetC = molecular target: T7, ShMetC (Staphylococcus hominis, UniProt Z9HEU7RWP2); experiment: DTNB thiol release, A412, Michaelis-Menten; format: biochemical; conditions: pH 7.8, 50 mM KPi, 200 mM NaCl, 37 °C, 0.4 mM DTNB
T7 construct: full length; expressed in E. coli MC1061; species of 'Sh' not spelt out for MetC (S. haemolyticus possible)

T2 sequence (Q08432 whole entry): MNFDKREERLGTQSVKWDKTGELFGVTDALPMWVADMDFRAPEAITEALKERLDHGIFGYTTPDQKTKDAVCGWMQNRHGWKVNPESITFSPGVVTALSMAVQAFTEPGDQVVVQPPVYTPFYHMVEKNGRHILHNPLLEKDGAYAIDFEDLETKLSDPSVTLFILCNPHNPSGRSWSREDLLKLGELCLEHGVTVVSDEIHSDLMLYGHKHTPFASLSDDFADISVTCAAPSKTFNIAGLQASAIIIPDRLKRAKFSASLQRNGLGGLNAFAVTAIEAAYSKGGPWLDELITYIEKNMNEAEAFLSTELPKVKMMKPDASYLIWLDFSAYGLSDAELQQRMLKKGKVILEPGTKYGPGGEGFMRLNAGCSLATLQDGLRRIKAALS
T6 sequence (P23256 whole entry): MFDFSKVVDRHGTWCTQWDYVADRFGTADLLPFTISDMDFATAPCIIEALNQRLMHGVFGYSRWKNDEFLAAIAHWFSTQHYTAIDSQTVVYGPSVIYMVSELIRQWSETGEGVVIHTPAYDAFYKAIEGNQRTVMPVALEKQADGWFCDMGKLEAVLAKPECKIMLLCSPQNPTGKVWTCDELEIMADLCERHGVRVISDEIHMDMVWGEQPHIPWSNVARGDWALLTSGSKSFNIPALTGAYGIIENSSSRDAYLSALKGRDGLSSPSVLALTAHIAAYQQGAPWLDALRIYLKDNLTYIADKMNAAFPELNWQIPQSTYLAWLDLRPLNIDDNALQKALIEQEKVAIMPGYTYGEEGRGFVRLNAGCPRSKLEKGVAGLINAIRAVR

Compound	KM (ShPatB [4])	KM (SaPatB)	KM (BsPatB [5])	KM (EcMalY)	also measured
N[C@H]1CONC1=O [LCS, L-cycloserine]					inhibition (end point) (ShPatB [1]): Cycloserine in vitro inhibition of ShPatB with Cys-3M3SH as the substrate
Cc1ncc(COP(=O)(O)O)c(C=O)c1O [PLP, pyridoxal phosphate]					X-ray crystallography, 1.6 Å (ShPatB [2]): each subunit containing a PLP moiety covalently bound to a conserved lysine residue; X-ray crystallography, 2.3 Å (BsPatB [3]): each subunit containing a PLP moiety covalently bound to a conserved lysine residue
CC(C)(CCO)SC[C@H](N)C(=O)O [Felinine]	We also measured enzyme activity against Felinine, a close structural analog of Cys-3M3SH				
N[C@@H](CCSC[C@H](N)C(=O)O)C(=O)O [cystathionine]		Streptococcus anginosus (SaPatB) did not discriminate between the two ligands	B. subtilis (BsPatB) and Streptococcus anginosus (SaPatB) did not discriminate between the two ligands	E. coli MalY (EcMalY) had higher activities against cystathionine	KM (SeMetC): higher activities against cystathionine, similar to the MetC enzymes included (ShMetC and SeMetC); KM (CjAecD): CjAecD is selective for cystathionine over Cys-3M3SH; KM (ShMetC): higher activities against cystathionine, similar to the MetC enzymes included (ShMetC and SeMetC)
CCCC(C)(CCO)SC[C@H](N)C(=O)O (some centres unmarked) [Cys-3M3SH]	ShPatB exhibits selectivity towards Cys-3M3SH	Streptococcus anginosus (SaPatB) did not discriminate between the two ligands	B. subtilis (BsPatB) and Streptococcus anginosus (SaPatB) did not discriminate between the two ligands	E. coli MalY (EcMalY) had higher activities against cystathionine	

From article PMC7385124, “The molecular basis of thioalcohol production in human body odour” (Scientific Reports, 2020)
